Test results published in PMC5441875 (eLife, 2017).
Where “and” joins values, the source holds several entries; their conditions need not be identical. Equal entries are not always repeated. Where two headings read alike, the source gives them in different places.

Tests used:
[1] = system: GluN1-P532PSAA/GluN2A receptors; assay: Potentiation by the positive allosteric modulator GNE-6901, whole-cell patch-clamp; format: cell-based, rat
Experimental: (§1) Receptor functionality and light-sensitivity were assessed in patch-clamp recordings of lifted whole cells 24–72 hr post transfection. Positively transfected cells were visualized by GFP-fluorescence. […] The osmolarity was 270–290 mOsm. The cells were continuously perfused with a Ringer solution containing (in mM): 140 NaCl, 2.8 KCl, 1 CaCl2, 0.01 DTPA, 10 HEPES and five sucrose (pH 7.3 with NaOH). The osmolarity was 290 mOsm. DTPA was added to prevent tonic inhibition of NMDARs by ambient zinc ([Paoletti et al., 1997]). Currents were recorded using an Axopatch 200B amplifier and a Digidata 1550A interface (Molecular Devices), sampled at 10–20 kHz, and low-pass filtered at 2–5 kHz. The cells were voltage-clamped at −60 mV. pClamp 10.5 (Molecular Devices) was used to acquire the data. All recordings were performed at room temperature.
Agonists or other pharmacological substances were applied using a multi-barrel rapid solution exchanger system (RSC 200, Bio-Logic). […] The agonist deactivation kinetics were assessed by including the converse co-agonist to the control solution. […]
(§2) Computer-controlled light pulses during electrophysiological recordings were provided from sensitive high power LEDs (Prizmatix). […] The LED port was directly coupled via a microscope adaptor to the fluorescence port of an inverted DIAPHOT 300 Nikon microscope. […]

[2] = biological target: T1, WT GluN1/GluN2A receptors (Rattus norvegicus, UniProt P35439+Q00959); assay: as above; format: cell-based; parameters: expressed in transfected cells; host or cells: HEK-293 cells (ATCC), PEI transfection, pcDNA3-based vectors
Experimental: as §1
(§3) Agonists or other pharmacological substances were applied using a multi-barrel rapid solution exchanger system (RSC 200, Bio-Logic). […] The agonist deactivation kinetics were assessed by including the converse co-agonist to the control solution. For Mg^2+-DRCs, the concentration of DTPA, which has orders of magnitude higher affinity for Zn^2+ than Mg^2+ ([Paoletti et al., 1997]), was reduced to 1 µM to avoid excessive Mg^2+ chelation, while maintaining depletion of ambient zinc (estimated in the few hundreds of nM). Accordingly, Mg^2+ concentrations reported in the Mg^2+-DRC were not corrected and correspond to the nominal concentrations of added Mg^2+. MK-801 was applied at 1 μM to assure full inhibition of WT NMDAR-mediated currents. The positive allosteric modulator (PAM) GNE-6901 (obtained from Genentech, South San Francisco, USA) was used at a final concentration of 30 μM ([Hackos et al., 2016]).
as §2

[3] = biological target: T1, WT GluN1/GluN2A receptors; assay: Magnesium dose-response curves (Mg2+-DRCs), whole-cell patch-clamp; format: cell-based; parameters: expressed in transfected cells; host or cells: HEK-293 cells (ATCC), PEI transfection, pcDNA3-based vectors
Experimental: as §1, §3, §2

[4] = system: GluN1-F654PSAA/GluN2A receptors; assay: as above; format: cell-based, rat; settings: F654PSAA mutant
Experimental: as §1, §3
(§4) Computer-controlled light pulses during electrophysiological recordings were provided from sensitive high power LEDs (Prizmatix). The three following LEDs were used: Mic-LED-365 (UV, 200 mW), UHP-Mic-LED-460 (blue, 2W) and UHP-Mic-LED-520 (green, 900 mW). The LED port was directly coupled via a microscope adaptor to the fluorescence port of an inverted DIAPHOT 300 Nikon microscope. The output beams of the three Mic-LEDs were joined by a dichroic beam combiner module and the resulting light was applied to the center of the recording dish through a 10X objective (Leitz Wetzlar). The light intensity of all three LEDs was set to 100%, unless otherwise noted.
(§5) Current traces obtained in electrophysiological recordings were transferred to Igor Pro (version 6.3) or Clampfit (version 10.5) for display and analysis. The kinetics of photoinactivation and photopotentiation were obtained by fitting currents with a single exponential function as follows: Y = A*exp(-t/τ) + C, with A as the initial current amplitude, Tau (τ) the decay time constant, and C the steady-state level. The inhibition by MK-801 was also fit with a monoexponential function. […] Accordingly, and for comparative purposes, only single exponential fits were used when studying MK-801 inhibition. Agonist DRCs were fit with the following Hill equation: Irel = 1/(1 + (EC50 / [ago])^nH), with EC50 and the Hill coefficient (nH) as free parameters. For Mg^2+-DRCs the following equation was used: Irel = 100*(1-(a/(1+[IC50]/[Mg^2+)^nH,)), where a is the maximal current inhibition by Mg^2+. IC50, a, and the Hill coefficient (nH) were set as free parameters.

[5] = system: GluN1-Y647PSAA/GluN2A receptors; assay: as above; format: cell-based, rat; settings: Y647PSAA mutant
Experimental: as §1, §3, §4, §5

[6] = biological target: GluN1-P532PSAA/GluN2A receptors; settings: PSAA-mutant
Experimental: as §1, §3
Computer-controlled light pulses during electrophysiological recordings were provided from sensitive high power LEDs (Prizmatix).

[7] = system: GluN1-P532PSAA/GluN2A receptors; assay: UV-induced photoinhibition of currents in the presence of ligands (glycine concentrations, competitive antagonists, PAM); format: cell-based, rat
Experimental: as §1, §3, §4

[8] = system: GluN1-P532PSAA/GluN2A receptors; settings: PSAA-mutant; for τdeact,UV (example trace) / τdeact,BLUE (example trace): single example trace; for τdeact,BLUE (example trace): blue light
Experimental: as §1, §3, §4
The weighted deactivation time constants were calculated with: τw =( Af/(Af+As))*τf + (As /(Af + As))*τs.

[9] = UV/Vis spectra of the free PSAA photoisomers; format: physicochemical; settings: isopropanol, 5 min irradiation at 460 nm
Experimental: The UV/Vis spectra of the free PSAA (100 μM) were measured using a UVIKON 922 spectrophotometer (Kontron Instruments) in 1 x 1 × 4 cm quartz cuvettes. The spectra were measured at two different conditions: (i) with PSAA in the extracellular (Ringer) solution to be as close as possible to the recording conditions, and (ii) in isopropanol to mimic a hydrophobic environment (since PSAA is buried in the protein) ([Ye et al., 2009]). To induce the different photoisomers, the dissolved PSAA was directly irradiated in the cuvette at 365 nm (30 mW), 460 nm (241 mW), and 525 nm (35 mW) using a Cool LED pE-4000 illumination system. The UV spectra of the pure trans-isomer were recorded upon storage in the dark.

[10] = system: GluN1-P532PSAA/GluN2A receptors; assay: MK-801 open channel block kinetics, whole-cell patch-clamp; format: cell-based, rat
Experimental: as §1, §3, §4, §5

[11] = biological target: T1, WT GluN1/GluN2A receptors; assay: MK-801 open channel block (kinetics and extent), whole-cell patch-clamp; format: cell-based; parameters: expressed in transfected cells; host or cells: HEK-293 cells (ATCC), PEI transfection, pcDNA3-based vectors; settings: 1 µM MK-801, WT
Experimental: as §1, §3, §4, §5

[12] = system: GluN1-F654PSAA/GluN2A receptors; assay: as above; format: cell-based, rat
Experimental: as §1, §3, §4, §5

[13] = system: GluN1-Y647PSAA/GluN2A receptors; assay: as above; format: cell-based, rat; settings: 1 µM MK-801, Y647PSAA mutant
Experimental: as §1, §3, §4, §5

[14] = blue light, read-out: IC50 BLUE
[15] = read-out: EC50,BLUE, blue light (460 nm)
[16] = read-out: EC50,DARK, dark, 100 μM of the respective co-agonist
[17] = read-out: EC50,UV, UV light (365 nm)
[18] = 1 µM MK-801, F654PSAA mutant, UV
[19] = 1 µM MK-801, F654PSAA mutant, dark

T1 sequence (Q00959 23-1464, other chains not shown): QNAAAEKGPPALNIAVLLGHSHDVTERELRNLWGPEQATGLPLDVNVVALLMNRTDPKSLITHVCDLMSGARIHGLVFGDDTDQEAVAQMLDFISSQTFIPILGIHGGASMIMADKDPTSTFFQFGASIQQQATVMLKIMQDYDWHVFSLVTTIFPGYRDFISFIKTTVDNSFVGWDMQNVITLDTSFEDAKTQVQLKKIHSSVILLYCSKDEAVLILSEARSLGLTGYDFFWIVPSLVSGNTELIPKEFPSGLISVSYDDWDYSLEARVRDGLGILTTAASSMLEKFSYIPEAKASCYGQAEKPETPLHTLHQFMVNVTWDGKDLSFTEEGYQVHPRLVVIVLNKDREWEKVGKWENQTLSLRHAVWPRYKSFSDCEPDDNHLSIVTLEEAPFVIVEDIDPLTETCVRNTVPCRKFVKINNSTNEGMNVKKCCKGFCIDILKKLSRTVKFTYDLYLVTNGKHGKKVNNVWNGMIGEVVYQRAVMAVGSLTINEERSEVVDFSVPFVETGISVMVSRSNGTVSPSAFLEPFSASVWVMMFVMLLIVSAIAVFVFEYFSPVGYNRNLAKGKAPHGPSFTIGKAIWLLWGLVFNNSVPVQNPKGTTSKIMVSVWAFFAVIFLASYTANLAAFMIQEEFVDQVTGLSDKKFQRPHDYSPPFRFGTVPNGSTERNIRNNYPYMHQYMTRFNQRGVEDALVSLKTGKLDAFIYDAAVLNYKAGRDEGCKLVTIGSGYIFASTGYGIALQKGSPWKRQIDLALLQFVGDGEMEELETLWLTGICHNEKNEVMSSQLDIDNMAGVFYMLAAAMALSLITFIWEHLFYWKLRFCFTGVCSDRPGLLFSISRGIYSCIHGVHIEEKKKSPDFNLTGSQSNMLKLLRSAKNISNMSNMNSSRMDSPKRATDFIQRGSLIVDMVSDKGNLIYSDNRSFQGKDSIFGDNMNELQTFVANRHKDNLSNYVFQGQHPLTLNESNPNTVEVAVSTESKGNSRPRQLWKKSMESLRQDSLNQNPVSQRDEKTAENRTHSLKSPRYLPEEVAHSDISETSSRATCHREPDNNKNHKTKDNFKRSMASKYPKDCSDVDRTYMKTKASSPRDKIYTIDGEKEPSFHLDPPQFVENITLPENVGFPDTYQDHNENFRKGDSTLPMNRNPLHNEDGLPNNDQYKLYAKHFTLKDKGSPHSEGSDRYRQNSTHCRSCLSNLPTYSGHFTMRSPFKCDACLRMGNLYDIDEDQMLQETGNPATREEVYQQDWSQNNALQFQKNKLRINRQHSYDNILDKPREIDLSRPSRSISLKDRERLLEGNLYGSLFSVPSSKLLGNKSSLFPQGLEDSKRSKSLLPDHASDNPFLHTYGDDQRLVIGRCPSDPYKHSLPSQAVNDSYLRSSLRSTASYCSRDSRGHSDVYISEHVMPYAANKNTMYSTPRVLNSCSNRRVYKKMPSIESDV

Cc1sc2nc(COc3ccc(F)cc3)cc(=O)n2c1[C@@H]1C[C@H]1CO [GNE-6901]
mean fold-potentiation by PAM ([1]; GNE-6901 30 µM, PSAA mutant, cis and trans pooled): 0.9 ± 0.04 fold
effect of PAM application ([1]; GluN1-P532PSAA mutant receptors): entirely unaffected
mean fold-potentiation by PAM ([2]; GNE-6901 30 µM, WT): 2.3 ± 0.3 fold
fold potentiation (example trace) ([2]; GNE-6901 30 µM, WT, example trace): 2.3 fold
effect of PAM application ([2]; WT receptors): strongly potentiated

[Mg+2] [Mg^2+]
IC50 ([3]; UV light, read-out: IC50 UV): 35.8 µM
IC50 [3, 14]: 32.6 µM
IC50 ([3]; dark, nominal Mg2+ concentrations, read-out: IC50 DARK): 34.6 µM
IC50 ([4]; UV light, read-out: IC50 UV): 33.3 µM
IC50 [4, 14]: 34.3 µM
IC50 ([4]; dark, read-out: IC50 DARK): 30 µM
IC50 ([5]; UV light, read-out: IC50,UV): 41.5 µM
IC50 ([5]; blue light, read-out: IC50,BLUE): 102 µM
fold increase in IC50 under dark or blue light ([5]; dark or blue vs UV): 2.5 fold
IC50 ([5]; dark, read-out: IC50,DARK): 103 µM

NCC(=O)O [glycine]
EC50 [6, 15]: 1.5 µM
EC50 [6, 16]: 1.5 µM
EC50 [6, 17]: 10.5 µM
mean photoinhibition degree Inh1 ([7]; 1 μM glycine): ~95%
mean photoinhibition degree Inh10 ([7]; 10 μM glycine): 76.1 ± 2%
mean photoinhibition degree Inh100 ([7]; 100 μM glycine): 49.9 ± 2.5%
mean photoinhibition degree Inh1000 ([7]; 1000 μM glycine): 33.5 ± 2%
mean weighted deactivation time constant τdeact,UV ([8]; UV): 81 ± 4 ms
τdeact,UV (example trace) ([8]; UV): 75.4 ms
τdeact,BLUE (example trace) [8]: 131.3 ms
mean weighted deactivation time constant τdeact,DARK [8]: 111 ± 9 ms

C=Cc1cccc(/N=N/c2ccc(C[C@H](N)C(=O)O)cc2)c1 [PSAA]
cis/trans ratio [9]: 74%

N[C@@H](CCC(=O)O)C(=O)O [glutamate]
EC50 [6, 15]: 13.3 µM
EC50 [6, 16]: 14.6 µM
EC50 [6, 17]: 17.1 µM
τdeact,UV (example trace) ([8]; UV): 77.7 ms
τdeact,BLUE (example trace) [8]: 79.2 ms
mean weighted deactivation time constant τdeact,DARK [8]: 113 ± 36 ms

C[C@]12N[C@H](Cc3ccccc31)c1ccccc12 [MK-801]
time constant of MK-801 inhibition τUV (example trace) ([10]; 1 µM MK-801, P532PSAA mutant, UV, example): 3200 ms
single-exponential time constant of MK-801 inhibition τUV ([10]; 1 µM MK-801, P532PSAA mutant, UV, mean): 1820 ± 290 ms
time constant of MK-801 inhibition τDARK (example trace) ([10]; 1 µM MK-801, P532PSAA mutant, dark, example): 470 ms
single-exponential time constant of MK-801 inhibition τDARK ([10]; 1 µM MK-801, P532PSAA mutant, dark, mean): 940 ± 160 ms
fold slower MK-801 blocking kinetics ([10]; P532PSAA mutant in dark state vs WT): ~ 1.3 fold
fold slower MK-801 inhibition rates ([10]; P532PSAA mutant under UV exposure): ~ 2 fold
mean extent of block produced by MK-801, BlockUV ([11]; UV): 98 ± 1%
time constant of MK-801 inhibition (example trace) ([11]; UV): 700 ms
single-exponential time constant of MK-801 inhibition τUV ([11]; UV, mean): 620 ± 50 ms
single-exponential time constant of MK-801 inhibition τBLUE ([11]; blue, mean): 610 ± 90 ms
mean extent of block produced by MK-801, BlockDARK ([11]; dark): 97 ± 1%
time constant of MK-801 inhibition (example trace) ([11]; dark): 600 ms
single-exponential time constant of MK-801 inhibition τDARK ([11]; dark, mean): 690 ± 140 ms
mean extent of block produced by MK-801, BlockUV [12, 18]: 97 ± 1%
time constant of MK-801 inhibition (example trace) [12, 18]: 1000 ms
single-exponential time constant of MK-801 inhibition τUV ([12]; 1 µM MK-801, F654PSAA mutant, UV, mean): 730 ± 70 ms
mean extent of block produced by MK-801, BlockDARK [12, 19]: 90 ± 3%
time constant of MK-801 inhibition (example trace) [12, 19]: 3970 ms
single-exponential time constant of MK-801 inhibition τDARK ([12]; 1 µM MK-801, F654PSAA mutant, dark, mean): 3070 ± 560 ms
degree of MK-801 block ([12]; F654PSAA receptors, across light conditions): ≥ 90%
mean extent of block produced by MK-801, BlockUV ([13]; UV): 86 ± 3% and > 85%
time constant of MK-801 inhibition (example trace) ([13]; UV): 3300 ms
single-exponential time constant of MK-801 inhibition τUV ([13]; UV, mean): 4150 ± 910 ms
mean extent of block produced by MK-801, BlockDARK ([13]; dark (trans)): 69 ± 5% and 69%
time constant of MK-801 inhibition (example trace) ([13]; dark): 4400 ms
single-exponential time constant of MK-801 inhibition τDARK ([13]; dark, mean): 5070 ± 580 ms
